# From ChEMBL document CHEMBL5608165, “Opportunities and perspectives of small molecular phosphodiesterase inhibitors in neurodegenerative diseases” (Eur J Med Chem, 2024)
# Legend:
# [1] = target: 3',5'-cyclic-AMP phosphodiesterase 4B (Homo sapiens, UniProt Q07343); experiment: Inhibition of human recombinant PDE4B1 using […] as substrate preincubated with compound for 15 mins followed by substrate addition and measured after 30 mins by spectrofluorimetric analysis
# Phosphodiesterase 4 = Phosphodiesterase 4 (Homo sapiens, UniProt P27815+Q08499+Q07343+Q08493); experiment: Inhibition of PDE4 (unknown origin); type: protein assay
# Histone deacetylase 1 = Histone deacetylase 1 (Homo sapiens, UniProt Q13547); experiment: Inhibition of HDAC1 (unknown origin)
# Acetylcholinesterase = Acetylcholinesterase (Homo sapiens, UniProt P22303); experiment: Inhibition of AChE (unknown origin) using acetylthiocholine iodide as substrate by Ellman's method
# [2] = target: T1, cGMP-specific 3',5'-cyclic phosphodiesterase (Homo sapiens, UniProt O76074); experiment: Inhibition of PDE5A (unknown origin)
# [3] = target: High affinity 3',5'-cyclic-AMP phosphodiesterase 7A (Homo sapiens, UniProt Q13946); experiment: Inhibition of PDE7A (unknown origin)
# [4] = target: 3',5'-cyclic-AMP phosphodiesterase 7B (Homo sapiens, UniProt Q9NP56); experiment: Inhibition of PDE7B (unknown origin)
# [5] = target: T2, cAMP and cAMP-inhibited cGMP 3',5'-cyclic phosphodiesterase 10A (Homo sapiens, UniProt Q9Y233); experiment: Inhibition of his-tagged recombinant human PDE10A catalytic domain extracted from Escherichia coli BL21(DE3) using [3H]-cAMP as substrate incubated for 10 mins by SPA assay
# [6] = target: T3, High affinity cGMP-specific 3',5'-cyclic phosphodiesterase 9A (Homo sapiens, UniProt O76083); experiment: Inhibition of PDE9A (unknown origin)
# [7] = Inhibition of PDE1 (unknown origin); design: species or system Homo sapiens
# [8] = target: T2, cAMP and cAMP-inhibited cGMP 3',5'-cyclic phosphodiesterase 10A; experiment: Inhibition of PDE10A (unknown origin)
# [9] = target: cGMP-dependent 3',5'-cyclic phosphodiesterase (Homo sapiens, UniProt O00408); experiment: Inhibition of PDE2A (unknown origin) using 3H-cGMP as substrate
# [10] = target: Dual specificity calcium/calmodulin-dependent 3',5'-cyclic nucleotide phosphodiesterase 1C (Homo sapiens, UniProt Q14123); experiment: Inhibition of PDE1C (unknown origin)
# [11] = target: Dual specificity calcium/calmodulin-dependent 3',5'-cyclic nucleotide phosphodiesterase 1A (Homo sapiens, UniProt P54750); experiment: Inhibition of human recombinant GST-tagged PDE1A
# [12] = target: Dual specificity calcium/calmodulin-dependent 3',5'-cyclic nucleotide phosphodiesterase 1B (Homo sapiens, UniProt Q01064); experiment: Inhibition of PDE1B (unknown origin)
# [13] = target: Glycogen synthase kinase-3 alpha (Homo sapiens, UniProt P49840); experiment: Inhibition of GSK3alpha (unknown origin)
# [14] = target: T3, High affinity cGMP-specific 3',5'-cyclic phosphodiesterase 9A; experiment: Binding affinity to PDE9A (unknown origin) using [3H]cAMP as substrate assessed as inhibition constant incubated for 1 hr by […]
# [15] = target: cGMP-inhibited 3',5'-cyclic phosphodiesterase 3B (Homo sapiens, UniProt Q13370); experiment: Inhibition of human recombinant PDE3B using FAM-cyclic-3',5'-AMP as substrate incubated for 1 hrs by fluorescence polarization based assay
# [16] = target: cGMP-inhibited 3',5'-cyclic phosphodiesterase 3A (Homo sapiens, UniProt Q14432); experiment: Inhibition of PDE3A (unknown origin) using FAM-cAMP as substrate incubated for 45 mins by TR-FRET analysis
# [17] = target: T1, cGMP-specific 3',5'-cyclic phosphodiesterase; experiment: Inhibition of PDE5A1 (unknown origin) using [3H]-cGMP substrate incubated for 15 mins by liquid scintillation counting method
# Dual specificity calcium/calmodulin-dependent 3',5'-cyclic nucleotide phosphodiesterase 1C, sequence (Q14123 whole entry): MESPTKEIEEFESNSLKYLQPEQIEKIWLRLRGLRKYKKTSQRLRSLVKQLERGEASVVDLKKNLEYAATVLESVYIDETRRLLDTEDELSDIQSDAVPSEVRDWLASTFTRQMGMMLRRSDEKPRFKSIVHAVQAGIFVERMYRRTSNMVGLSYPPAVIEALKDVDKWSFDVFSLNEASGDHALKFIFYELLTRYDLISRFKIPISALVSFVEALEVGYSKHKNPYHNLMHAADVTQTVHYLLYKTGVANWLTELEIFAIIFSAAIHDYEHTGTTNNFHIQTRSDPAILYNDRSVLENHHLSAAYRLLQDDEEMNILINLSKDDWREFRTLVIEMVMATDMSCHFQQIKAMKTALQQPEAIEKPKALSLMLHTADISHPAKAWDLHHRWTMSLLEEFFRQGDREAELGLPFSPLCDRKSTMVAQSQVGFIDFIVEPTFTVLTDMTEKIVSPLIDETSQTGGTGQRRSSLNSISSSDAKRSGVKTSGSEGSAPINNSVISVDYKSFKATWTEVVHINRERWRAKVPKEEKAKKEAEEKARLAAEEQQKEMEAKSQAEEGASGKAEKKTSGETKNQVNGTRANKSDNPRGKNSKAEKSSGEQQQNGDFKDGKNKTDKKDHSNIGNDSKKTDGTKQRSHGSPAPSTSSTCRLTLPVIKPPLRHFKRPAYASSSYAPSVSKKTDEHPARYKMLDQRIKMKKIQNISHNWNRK
# High affinity 3',5'-cyclic-AMP phosphodiesterase 7A, sequence (Q13946 whole entry): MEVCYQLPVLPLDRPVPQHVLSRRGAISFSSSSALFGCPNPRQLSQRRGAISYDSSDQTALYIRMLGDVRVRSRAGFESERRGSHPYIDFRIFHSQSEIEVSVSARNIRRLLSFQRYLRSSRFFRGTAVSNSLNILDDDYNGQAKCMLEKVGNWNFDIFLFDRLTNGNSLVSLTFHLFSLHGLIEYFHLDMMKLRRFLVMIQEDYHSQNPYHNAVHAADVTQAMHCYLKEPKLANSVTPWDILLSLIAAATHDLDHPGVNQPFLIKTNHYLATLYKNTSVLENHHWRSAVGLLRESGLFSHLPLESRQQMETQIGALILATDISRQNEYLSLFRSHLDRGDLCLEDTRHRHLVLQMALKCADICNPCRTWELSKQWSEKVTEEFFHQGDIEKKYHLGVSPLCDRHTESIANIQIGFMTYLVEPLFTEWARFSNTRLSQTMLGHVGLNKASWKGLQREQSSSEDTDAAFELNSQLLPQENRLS
# T3 sequence (O76083 whole entry): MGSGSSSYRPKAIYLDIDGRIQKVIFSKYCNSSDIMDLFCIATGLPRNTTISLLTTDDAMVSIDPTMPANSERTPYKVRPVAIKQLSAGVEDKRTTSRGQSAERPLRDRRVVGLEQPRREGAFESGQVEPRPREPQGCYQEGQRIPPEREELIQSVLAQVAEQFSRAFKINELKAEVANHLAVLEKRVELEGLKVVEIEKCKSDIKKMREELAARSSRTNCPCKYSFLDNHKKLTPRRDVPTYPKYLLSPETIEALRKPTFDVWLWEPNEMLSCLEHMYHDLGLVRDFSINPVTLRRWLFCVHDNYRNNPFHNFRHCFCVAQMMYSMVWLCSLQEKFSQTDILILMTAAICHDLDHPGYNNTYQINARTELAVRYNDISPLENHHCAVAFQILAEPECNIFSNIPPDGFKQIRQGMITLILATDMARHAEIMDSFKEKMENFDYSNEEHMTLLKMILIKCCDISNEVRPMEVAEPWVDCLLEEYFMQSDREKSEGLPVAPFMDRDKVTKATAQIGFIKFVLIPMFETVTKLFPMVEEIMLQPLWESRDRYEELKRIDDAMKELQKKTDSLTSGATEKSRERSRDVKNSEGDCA
# Dual specificity calcium/calmodulin-dependent 3',5'-cyclic nucleotide phosphodiesterase 1B, sequence (Q01064 whole entry): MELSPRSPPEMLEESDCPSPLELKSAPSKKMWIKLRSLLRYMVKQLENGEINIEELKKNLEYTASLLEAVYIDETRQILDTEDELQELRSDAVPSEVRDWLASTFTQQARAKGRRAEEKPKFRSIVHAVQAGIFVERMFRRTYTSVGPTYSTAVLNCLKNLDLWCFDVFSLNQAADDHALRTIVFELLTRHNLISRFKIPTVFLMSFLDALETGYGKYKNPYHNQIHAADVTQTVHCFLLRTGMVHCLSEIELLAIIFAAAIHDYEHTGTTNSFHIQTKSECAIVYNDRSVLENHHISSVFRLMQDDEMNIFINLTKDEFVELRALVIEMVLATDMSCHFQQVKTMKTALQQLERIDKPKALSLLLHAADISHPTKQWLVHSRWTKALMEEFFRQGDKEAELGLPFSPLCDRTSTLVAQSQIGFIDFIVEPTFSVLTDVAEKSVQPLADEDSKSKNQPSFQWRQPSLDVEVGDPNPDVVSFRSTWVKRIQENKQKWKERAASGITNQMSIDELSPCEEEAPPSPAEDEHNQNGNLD
# 3',5'-cyclic-AMP phosphodiesterase 4B, sequence (Q07343 whole entry): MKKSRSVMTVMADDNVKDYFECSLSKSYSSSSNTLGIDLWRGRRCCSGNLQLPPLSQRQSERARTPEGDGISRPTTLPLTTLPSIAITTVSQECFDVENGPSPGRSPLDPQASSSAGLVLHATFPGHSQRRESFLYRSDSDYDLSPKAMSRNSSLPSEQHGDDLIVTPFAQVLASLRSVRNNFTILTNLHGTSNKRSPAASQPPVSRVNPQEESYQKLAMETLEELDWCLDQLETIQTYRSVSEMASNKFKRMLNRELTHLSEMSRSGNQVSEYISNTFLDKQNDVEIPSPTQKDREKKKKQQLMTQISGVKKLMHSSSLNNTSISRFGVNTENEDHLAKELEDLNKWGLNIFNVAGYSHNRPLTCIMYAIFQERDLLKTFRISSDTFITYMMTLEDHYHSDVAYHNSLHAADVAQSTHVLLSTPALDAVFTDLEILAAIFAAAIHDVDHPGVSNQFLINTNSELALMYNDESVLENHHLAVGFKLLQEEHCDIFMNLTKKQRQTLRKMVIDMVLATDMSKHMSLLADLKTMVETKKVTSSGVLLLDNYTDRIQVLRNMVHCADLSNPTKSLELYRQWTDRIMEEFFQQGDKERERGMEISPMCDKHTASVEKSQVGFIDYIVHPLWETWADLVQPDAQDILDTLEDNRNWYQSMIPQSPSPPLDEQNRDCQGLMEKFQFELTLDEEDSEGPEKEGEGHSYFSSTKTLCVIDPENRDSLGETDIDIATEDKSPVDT
# Acetylcholinesterase, sequence (P22303 whole entry): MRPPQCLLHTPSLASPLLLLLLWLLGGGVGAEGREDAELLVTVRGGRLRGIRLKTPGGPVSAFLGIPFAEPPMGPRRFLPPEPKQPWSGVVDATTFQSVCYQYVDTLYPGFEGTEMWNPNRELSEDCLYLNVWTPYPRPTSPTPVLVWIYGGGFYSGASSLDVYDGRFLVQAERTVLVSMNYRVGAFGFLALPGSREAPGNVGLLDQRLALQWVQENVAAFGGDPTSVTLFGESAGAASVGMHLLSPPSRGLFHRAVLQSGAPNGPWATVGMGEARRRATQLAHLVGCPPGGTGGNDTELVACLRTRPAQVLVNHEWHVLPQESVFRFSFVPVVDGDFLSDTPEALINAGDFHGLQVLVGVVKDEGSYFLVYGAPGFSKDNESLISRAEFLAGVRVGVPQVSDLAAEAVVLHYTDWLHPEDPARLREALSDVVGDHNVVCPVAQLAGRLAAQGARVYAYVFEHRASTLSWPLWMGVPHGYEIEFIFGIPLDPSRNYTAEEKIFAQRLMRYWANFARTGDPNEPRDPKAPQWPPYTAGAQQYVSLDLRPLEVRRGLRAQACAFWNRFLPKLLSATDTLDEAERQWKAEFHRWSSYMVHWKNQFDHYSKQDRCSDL
# Histone deacetylase 1, sequence (Q13547 whole entry): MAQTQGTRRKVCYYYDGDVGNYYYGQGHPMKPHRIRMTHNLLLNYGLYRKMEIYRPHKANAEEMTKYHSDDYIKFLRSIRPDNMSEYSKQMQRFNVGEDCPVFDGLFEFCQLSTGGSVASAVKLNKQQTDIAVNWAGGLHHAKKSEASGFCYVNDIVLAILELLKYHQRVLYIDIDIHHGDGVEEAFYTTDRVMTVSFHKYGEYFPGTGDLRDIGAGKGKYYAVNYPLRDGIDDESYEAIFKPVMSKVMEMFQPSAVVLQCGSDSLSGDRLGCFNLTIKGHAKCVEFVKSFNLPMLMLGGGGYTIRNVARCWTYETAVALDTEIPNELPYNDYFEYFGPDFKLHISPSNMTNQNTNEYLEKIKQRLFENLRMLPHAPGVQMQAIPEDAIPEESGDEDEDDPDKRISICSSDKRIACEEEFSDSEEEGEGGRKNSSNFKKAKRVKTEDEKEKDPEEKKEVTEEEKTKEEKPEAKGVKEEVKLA
# Dual specificity calcium/calmodulin-dependent 3',5'-cyclic nucleotide phosphodiesterase 1A, sequence (P54750 whole entry): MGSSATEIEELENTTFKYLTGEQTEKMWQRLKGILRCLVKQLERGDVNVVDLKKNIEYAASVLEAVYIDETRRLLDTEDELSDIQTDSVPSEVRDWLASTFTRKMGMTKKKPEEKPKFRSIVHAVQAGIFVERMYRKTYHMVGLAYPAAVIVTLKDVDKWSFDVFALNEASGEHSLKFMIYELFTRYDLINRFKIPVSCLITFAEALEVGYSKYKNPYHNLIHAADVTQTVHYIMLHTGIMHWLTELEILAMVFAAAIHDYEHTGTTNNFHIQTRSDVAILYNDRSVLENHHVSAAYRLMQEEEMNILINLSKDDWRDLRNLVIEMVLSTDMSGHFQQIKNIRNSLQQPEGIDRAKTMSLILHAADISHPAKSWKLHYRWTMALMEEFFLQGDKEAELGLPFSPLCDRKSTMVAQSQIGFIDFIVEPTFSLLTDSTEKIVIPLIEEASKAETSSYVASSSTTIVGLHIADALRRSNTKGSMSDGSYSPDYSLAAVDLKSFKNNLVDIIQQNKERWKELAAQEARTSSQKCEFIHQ
smiles,measurement,setting,value
O=C(Nc1ccccc1Cl)c1ccc(OC(F)F)c(OC2CCCC2)c1,IC50,[1],95 nM
same,IC50,Phosphodiesterase 4,30 nM
O=C(Nc1ccccc1Cl)c1ccc(OC(F)F)c(OCC2CC2)c1,IC50,[1],144 nM
same,IC50,Phosphodiesterase 4,90 nM
CCCc1nc(C)c2c(=O)[nH]c(-c3cc(CC4CC(C(=O)NO)C4)ccc3OCC)nn12 (stereo unspecified),IC50,Histone deacetylase 1,208 nM
O=C1[C@H]2Cc3c([nH]c4ccccc34)[C@@H](c3ccc4c(c3)OCO4)N2C(=O)CN1CCC1CCN(Cc2ccccc2)CC1,IC50,Acetylcholinesterase,150 nM
same,IC50,[2],0.15 nM
C=CCn1cc(-c2nc3ccccc3nc2Cl)c2cc(OC)ccc21,IC50,[1],10.6 nM
CC(C)CCn1c2c(c3c(O)cc(O)cc31)CCn1c-2nc2ccccc2c1=O,IC50,[2],36 nM
Cc1ccc([N+](=O)[O-])cc1S(=O)(=O)N(C)C,IC50,[3],150 nM
same,IC50,[4],12100 nM
CCCc1nn(C)c2c(=O)[nH]c(-c3cc(Cc4ccc(C(=O)Nc5ccccc5N)cc4)ccc3OCC)nc12,IC50,Histone deacetylase 1,180 nM
O=C1[C@@H]2Cc3c([nH]c4ccccc34)[C@@H](c3ccc4c(c3)OCO4)N2C(=O)CN1CCC1CCN(Cc2ccccc2)CC1,IC50,Acetylcholinesterase,1630 nM
same,IC50,[2],1.63 nM
O=c1c(/C=C/c2nc3cc(Cl)ccc3n2-c2ccccc2)coc2ccc(F)cc12,IC50,[5],9.5 nM
COc1ccc([C@@H]2c3[nH]c4ccccc4c3C[C@H]3C(=O)N(CCC4CCN(Cc5ccccc5)CC4)CC(=O)N23)cc1,IC50,Acetylcholinesterase,3200 nM
same,IC50,[2],3.2 nM
C[C@@H](NC(=O)/C=C/c1cccc(O)c1)c1nc2c(cnn2C2CCCC2)c(=O)[nH]1,IC50,[6],58 nM
CCc1cc(C#N)cc2c(NCc3ccc(OC)c(Cl)c3)c(COCCF)cnc12,IC50,[2],33.4 nM
CC(C)(C)n1ncc2c(=O)n(Cc3cccc(F)c3)c(NCc3ccc(F)cn3)nc21,IC50,[7],40 nM
COc1cc2ncnc(NCCc3c[nH]c4ccc(O)cc34)c2cc1OC,IC50,[8],0.64 nM
C[C@@H]1CC(Cc2ccc(C(=O)NO)cc2)C[C@H]1c1nc2c(cnn2C2CCCC2)c(=O)[nH]1 (stereo partly specified),IC50,[6],107 nM
CCCCn1c(=O)n(CC)c(=O)c2[nH]c(-c3cccc(C(C)C)c3)cc21,IC50,[6],38000 nM
CC(c1cccc2ccccc12)n1cnc2c(=O)[nH]c(Cc3ccccc3)nc21 (stereo unspecified),IC50,[9],570 nM
COc1ccc(/C(CSc2nc3ccccc3c(=O)n2-c2ccccc2)=N\N)cc1,IC50,[3],1150 nM
COc1ccc2c(N(C)[C@]3(C)CCO[C@H]3C)ncnc2c1OC,IC50,[10],46.8 nM
same,IC50,[11],57.5 nM
same,IC50,[12],13.8 nM
COc1ccc(CNc2c(COCCF)cnc3c(C4CC4)cc(C#N)cc23)cc1Cl,IC50,[2],8 nM
Cn1c(OC[C@H]2CC[C@H](C(F)(F)F)CC2)nn2c(C3CCOCC3)ncc2c1=O,IC50,[10],431 nM
same,IC50,[12],43.9 nM
CC(C)=CCc1c2c(c3occ(-c4ccc(OS(C)(=O)=O)c(OS(C)(=O)=O)c4)c(=O)c3c1O)CCC(C)(C)O2,IC50,[6],5.3 nM
O=C(NCCc1ccccc1)c1cnn2c(=O)cc(-c3ccccc3)[nH]c12,IC50,[9],1.9 nM
c1ccc(-c2n/c(=N/CCN3CCOCC3)sn2-c2ccccc2)cc1,IC50,[13],880 nM
same,IC50,[3],1590 nM
CCCn1c(=O)c2[nH]c(-c3cccc(C(C)C)c3)cc2n(-c2ccc3c(c2)CNC3C(=O)OC)c1=O (stereo unspecified),Ki,[14],1.53 nM
COC[C@H]1CC[C@H](Oc2nn3c(C4CCOCC4)ncc3c(=O)n2C)CC1,IC50,[10],86 nM
same,IC50,[12],7.5 nM
O=C1NC(=O)/C(=C/c2ccc(OCCNc3nc4c(cnn4C4CCCC4)c(=O)[nH]3)c(F)c2)S1,IC50,[6],1.1 nM
O=C1CCc2cc(OCCCCc3nnnn3C3CCCCC3)ccc2N1 [CILOSTAZOL],IC50,[15],50 nM
same,IC50,[16],27 nM
COc1cc2c(cc1OC)C(=O)C(CC1CCN(Cc3ccccc3)CC1)C2 (stereo unspecified) [DONEPEZIL],IC50,[17],11 nM
CN1C(=O)c2c(nn(Cc3ccc(-c4cccc(F)n4)cc3)c2Nc2ccccc2)N2C1=N[C@@H]1CCC[C@@H]12 [LENRISPODUN],IC50,[7],50 nM
Cn1c(=O)c2[nH]cnc2n(C)c1=O [THEOPHYLLINE ANHYDROUS],IC50,[7],280 nM
CCOC(=O)C1=C[C@]2(CC)CCCN3CCc4c(n1c1ccccc41)[C@@H]32 [VINPOCETINE],IC50,[7],30000 nM
